According to paper PMC10744608, “Simplified Synthesis of Renieramycin T Derivatives to Target Cancer Stem Cells via β-Catenin Proteasomal Degradation in Human Lung Cancer” (Marine Drugs, 2023):

Legend:
Format in all cases: cell-based, human
[1] = system: A549, H23, and H292 cells; assay: Western blot of CSC markers; details: 25, 50, and 100 nM, 24 h
Experimental: (§1) The protein expression levels in NSCLC cells were assessed through Western blot analysis. A549, H23, and H292 cells were seeded at a density of 4 × 10^5 cells per well in 6-well cell culture plates. These cells were subjected to treatments with DH_32 at concentrations of 0, 25, 50, and 100 nM for 24 h at 37 °C.
Following treatment, the cells were collected using cold PBS and incubated on ice with a lysis buffer. The lysis buffer contained 50 mM 4-(2-hydroxyethyl)-1-piperazineethanesulfonic acid (pH 7.5), 150 mM NaCl, 5 mM EDTA, 1% Triton X-100, 1 mM phenylmethylsufonyl fluoride, and 2 μg/mL pepstatin A (cat no: 9803, Cell Signaling), along with complete protease inhibitor cocktail tablets provided in EASYpack (Roche, cat no: 04693116001). The incubation occurred for 40 min on ice, followed by centrifugation at 12,000× g at 4 °C for 15 min. Cell lysates were collected, and the protein content was quantified using the bicinchoninic acid (BCA) protein kit from Thermo-Fisher Scientific, Rockford, IL, USA. […] A chemiluminescent substrate (Supersignal West Pico; Pierce, Rockford, IL, USA) was applied to detect complex reactivity, and the signal intensity was quantified through densitometry. Protein intensity was analyzed by using ImageJ software (Image J 1.52a, Rasband, W., National Institutes of Health, Bethesda, MD, USA). […]

H292 cells = assay: Western blot of apoptosis-related proteins (cleaved PARP, Bcl-2, Bax)
Experimental: as §1
(§2) Following treatment, the cells were collected using cold PBS and incubated on ice with a lysis buffer. The lysis buffer contained 50 mM 4-(2-hydroxyethyl)-1-piperazineethanesulfonic acid (pH 7.5), 150 mM NaCl, 5 mM EDTA, 1% Triton X-100, 1 mM phenylmethylsufonyl fluoride, and 2 μg/mL pepstatin A (cat no: 9803, Cell Signaling), along with complete protease inhibitor cocktail tablets provided in EASYpack (Roche, cat no: 04693116001). The incubation occurred for 40 min on ice, followed by centrifugation at 12,000× g at 4 °C for 15 min. Cell lysates were collected, and the protein content was quantified using the bicinchoninic acid (BCA) protein kit from Thermo-Fisher Scientific, Rockford, IL, USA. The sample was denatured by heating at 95 °C for 5 min with a sample buffer. The protein was loaded onto a 10% sodium dodecyl sulfate polyacrylamide gel electrophoresis (SDS-PAGE). Following gel separation, the proteins were transferred onto a nitrocellulose membrane with a pore size of 0.45 μm. The membranes were incubated with 5% nonfat dry milk in TBST (25 mm Tris-HCl, pH 7.4, 125 mm NaCl, and 0.05% Tween 20) for 1 h 30 min. Following this, the membrane was exposed to primary antibodies (Cell Signaling) including rabbit PARP, BcL2, Bax, CD133, CD44, OCT4, ALDH1A1, and β-catenin, and incubated at 4 °C overnight. Rabbit β-actin served as the control for loading normalization. The primary antibodies were diluted to 1:1000 in 5% w/v BSA in TBST. The membranes were washed with TBST and were then exposed to horseradish-peroxidase (HRP)-conjugated isotype-specific secondary antibodies, as well as anti-rabbit and anti-mouse IgG (1:2000 in 5% w/v skim milk in TBST), for 1 h at RT. Membranes were washed again with TBST. A chemiluminescent substrate (Supersignal West Pico; Pierce, Rockford, IL, USA) was applied to detect complex reactivity, and the signal intensity was quantified through densitometry. Protein intensity was analyzed by using ImageJ software (Image J 1.52a, Rasband, W., National Institutes of Health, Bethesda, MD, USA). RT acted as the positive control for this experiment.

A549 cells = assay: as above
Experimental: as §1, §2

SMILES: COC1=C(C)C(=O)C2=C(C1=O)[C@@H]1CN(Cc3ccc4ccccc4c3)[C@@H](C#N)[C@H](C2)N1C [DH_32, (1R,4R,5S)-9-methoxy-8,11-dimethyl-3-(naphthalen-2-ylmethyl)-7,10-dioxo-1,2,3,4,5,6,7,10-octahydro-1,5-epiminobenzo[d]azocine-4-carbonitrile]
- CSC markers CD133, CD44, OCT4, and ALDH1A1 by western blot [1]: dramatic decrease
- anti-apoptotic Bcl-2 protein level (H292 cells; H292, 0–100 nM, 24 h): significant reduction in a dose-dependent manner
- cleaved PARP level (H292 cells; H292, 50 nM, 24 h): substantial increase
- pro-apoptotic protein Bax level (H292 cells; H292, 24 h): remained unaltered
- anti-apoptotic Bcl-2 protein level (A549 cells; A549, 0–100 nM, 24 h): significant reduction in a dose-dependent manner
- cleaved PARP level (A549 cells; A549, 50 nM, 24 h, compared to the RT treatment): six-fold increase
- pro-apoptotic protein Bax level (A549 cells; A549, 24 h, compared to the parent compound): two-fold increase
